No end group written: not given here. HA = not defined here

The subject of experiment [1] is γH2AX. Description: Confocal immunofluorescence of γH2AX, HeLa. It counts as cell-based, human. Conditions: HeLa expressing EGFP-H2AX (1–35) vs EGFP, Adriamycin-treated. How it is done:
(§1) Cells were plated onto chamber slides one day before treatment. Following treatment of cells with respective compounds, the adherent cells were fixed with 5% formaldehyde for 10 min and then washed with phosphate buffered saline (PBS). Samples were blocked (0.5% NP-40, 5% milk powder, 1% fetal bovine serum) for 30 min. After a single wash with PBS, cells were incubated with primary antibodies for 45 to 60 min. Coverslips were washed with PBS and then incubated with secondary antibodies for another 45 to 60 min. They were then washed with PBS and mounted with 0.1 μg/mL 4′,6′-diamidino-2-phenylindole (DAPI) containing mounting solution. […]
Our next objective was to analyze the biological significance of the CARP-1–H2AX interaction in cells. […] Next, we measured activation of caspases as an apoptosis readout in cells expressing myc-His-tagged wild-type CARP-1 or CARP-1 (Δ600–650) proteins that were either untreated or treated with Adriamycin or CFM compounds as detailed in Section 2. We utilized a lower, 4–5 μM dose of Adriamycin or CFM compounds because a 10 μM Adriamycin dose caused interference in signal output/readout in this particular assay, likely due to background fluorescence that is emitted by higher dose of Adriamycin. […]

Experiment [2] deals with MDA-MB-468 cells. Description: Transduction/localization of TAT-tagged proteins, MDA-MB-468. The format is cell-based, human. Particulars: MDA-MB-468, 300 μg/mL, confocal. As to the method:
as §1
We further tested whether and the extent to which transient and ectopic expression of CARP-1 (636–650) peptide would also interfere with the cell-growth inhibition by Adriamycin. […] The wild-type MDA-MB-468 or HeLa cells were pre-incubated with His-TAT-HA-EGFP or His-TAT-HA-CARP-1 (636–650) proteins, and presence of GFP and CARP-1 (636–650) was determined by immuno-cytochemical staining followed by photography using a confocal microscope as above. […]
Figure S9. […] Multiple cells from each of the confocal images in the γH2AX column of Figure 8C were subjected to quantitation for levels of γH2AX. The quantitation of the images of stained cells was carried out by using ImageJ software (imagej.nih.gov/ij/plugins/track/jacop2). […]

As to “EGFP-H2AX (1–35): EGFP-tagged fusion protein stably expressed in MDA-MB-468 and HeLa sublines (MSGRGKTGGKARAKAKSRSSRAGLQFPVGRVHRLL; also: EGFP fusion, end not given here; UniProt P16104 1-35, looked up, fragment)”, in experiment [1], the “nuclear presence of γH2AX” value is reported as “increased nuclear presence of γH2AX”. For “His-TAT-HA-CARP-1 (636–650): His-TAT-HA-tagged CARP-1 (636–650) peptide, >95% purity, commercially synthesized ({His-TAT-HA}-PKTMKVNDLRKELES; reading uncertain; UniProt Q8IX12 636-650, looked up, fragment)”, the “cellular localization after transduction” value in experiment [2] is reported as “predominantly present in the cytoplasmic region”.

The record behind these values is article PMC6406907, “A H2AX–CARP-1 Interaction Regulates Apoptosis Signaling Following DNA Damage” (Cancers, 2019).
